Entries after “also recorded” stand apart in the source; their conditions may differ. Ends that are not written are not given here.
Tests used:
Spir-1 = test: GST-pulldown from mouse brain lysates; assay type: binding; conditions: 50 µg GST-fusion protein; immunoblot anti-Spir-1; N = 3
Description: Wild-type C57BL/6 (Jackson Laboratory, Bar Harbor, ME, USA) mice were killed by cervical dislocation. The brain was isolated immediately, washed in cold PBS and lysed in lysis buffer (25 mM Tris-HCl pH 7.4, 150 mM NaCl, 5 mM MgCl2, 10% (v/v) glycerol, 0.1% (v/v) Nonidet P-40, 0.1 M NaF, 1 mM Na3VO4, 1 mM PMSF, protease inhibitor cocktail) using a TissueRuptor (Qiagen). Following incubation on ice for 45 min, the lysate was centrifuged at 20,000 x g, 4°C until the supernatant was clear. Brain lysates were incubated with GSH-Sepharose 4B beads, loaded with 50 µg GST-fusion proteins as indicated, for 2.5 hr at 4°C on a rotating wheel. Beads were washed five times with pulldown buffer and bound proteins were eluted by 1x Laemmli buffer and denatured at 95°C for 10 min. Pulled proteins were analyzed by immunoblotting.

GST-Rab11a-Q70L = test: GST-pulldown from HEK293 lysates; assay type: binding; conditions: N = 2
Description: HEK293 cells were co-transfected with expression vectors encoding Myc-Spir-2-FL, mStrawberry-FMN2-FH2-FSI, eGFP-MyoVa-D-FL and eGFP-MyoVa-D-Q1753R, respectively. 24 hr post transfection, cells were lysed in lysis buffer (25 mM Tris-HCl pH 7.4, 150 mM NaCl, 5 mM MgCl2, 10% (v/v) glycerol, 0.1% (v/v) Nonidet P-40, 1 mM PMSF, protease inhibitor cocktail) and centrifuged at 20,000 x g, 4°C, 20 min to remove insoluble debris. For GST-pulldown assays 65 µg GST-Rab11a-Q70L protein (25 µg GST control) was coupled to GSH-Sepharose 4B beads (1:1 suspension) for 1 hr, 4°C on a rotating wheel. Beads were washed twice with pulldown buffer (25 mM Tris-HCl pH 7.4, 150 mM NaCl, 5 mM MgCl2, 10% (v/v) glycerol, 0.1% (v/v) Nonidet P-40) and subsequently incubated with the cell lysates for 2 hr at 4°C on a rotating wheel. Beads were washed four times with pulldown buffer and bound proteins were eluted with 1x Laemmli buffer and denatured at 95°C for 10 min, then were analyzed by immunoblotting.

GFP-MyoVa-GTD = test: Co-immunoprecipitation from HEK293 cells; assay type: binding, Mus musculus; conditions: anti-Myc co-IP, HEK293, immunoblot, N = 2
Description: (§1) HEK293 cells were transfected with expression vectors encoding Myc-tagged Spir proteins and GFP-tagged myosin Va and myosin Vb fragments. 48 hr post transfection, cells were lysed in lysis buffer (25 mM Tris-HCl pH 7.4, 150 mM NaCl, 5 mM MgCl2, 10% (v/v) glycerol, 0.1% (v/v) Nonidet P-40, 1 mM Phenylmethylsulfonylfluorid (PMSF; Sigma-Aldrich), protease inhibitor cocktail (complete mini, EDTA-free; Roche, Penzberg, Germany)) and centrifuged at 20,000 x g, 4°C, 20 min to remove insoluble debris. The clarified supernatant was incubated with 4 µg anti-c-Myc antibody (9E10, mouse monoclonal; Santa Cruz Biotechnology; RRID: AB_627268) for 1 hr on ice. Subsequently, 40 µl Protein G-Agarose beads (1:1 suspension; Roche) were added and incubated for 2 hr at 4°C on a rotating wheel. Beads were washed with pulldown buffer (25 mM Tris-HCl pH 7.4, 150 mM NaCl, 5 mM MgCl2, 10% (v/v) glycerol, 0.1% (v/v) Nonidet P-40). Bound proteins were eluted with 1x Laemmli buffer and denatured for 10 min at 95°C, then analyzed by immunoblotting.

GFP-MyoVb-GTD = test: Co-immunoprecipitation from HEK293 cells; assay type: binding, Homo sapiens; conditions: anti-Myc co-IP, HEK293, immunoblot
Description: as §1

Rab11a-Q70L = test: GST-pulldown with purified proteins, tripartite complex; assay type: binding, Homo sapiens; conditions: N = 3
Description: For GST-pulldown assays, 50 µg of GST-fusion protein was coupled to GSH-Sepharose 4B beads (1:1 suspension) for 1 hr at 4°C on a rotating wheel. Beads were washed twice with pulldown buffer and subsequently incubated with 20 µg His6-mCherry-fusion peptides for 2 hr, 4°C on a rotating wheel. In order to identify the tripartite Spir-2:MyoVa:Rab11a complex, 65 µg GST-Spir-2-GTBM-SB-FYVE was coupled to beads. Subsequently, beads were incubated with 40 µg MyoVa-GTD and 35 µg Rab11a-Q70L simultaneously for 2 hr. Beads were washed four times with pulldown buffer and bound proteins were eluted by 1x Laemmli buffer and denatured at 95°C for 10 min. Pulled proteins were analyzed by immunoblotting.

GST-FMN2-eFSI: GST-mm-FMN2-eFSI aa 1523 - 1578, positive control ({GST}-EFSSDFKDAWKKENKLILQERVKEAEEVCRQKKGKSLYKVKPRHDSGIKAKISMKT) [reference compound]
pulldown of endogenous Spir-1 in words (Spir-1): able to pull endogenous Spir-1 from mouse brain lysates

Spir-2: Myc-hs-Spir2 aa 2 - 714, full-length (QRPRPRVLLKAPTLAEMEEMNTSEEEE)
pulldown by GST-Rab11a-Q70L in words (GST-Rab11a-Q70L; HEK293 lysates over-expressing Myc-Spir-2, Straw-FMN2-FH2-FSI and GFP-MyoVa-FL): able to pull down Myc-Spir-2
pulldown by GST-Rab11a-Q70L in words, with Q1753R mutant MyoVa (GST-Rab11a-Q70L; HEK293 lysates with GFP-MyoVa-Q1753R in place of GFP-MyoVa-FL): Only faint
co-precipitation / interaction with MyoVa-GTD in words (GFP-MyoVa-GTD): interacts
co-precipitation / interaction with MyoVa-GTD in words (GFP-MyoVa-GTD; listed as Myc-Spir-2): co-precipitation
co-precipitation / interaction with MyoVb-GTD in words (GFP-MyoVb-GTD): did interact with the GFP-MyoVb-GTD
co-precipitation / interaction with MyoVb-GTD in words (GFP-MyoVb-GTD; listed as Myc-Spir-2): co-precipitation

B1: GST-MyoVb-GTD: GST-hs-MyoVb-GTD aa 1467 - 1848 (protein)
chain: QGMLEYHKEDEALLIRNLVTDLKPQMLSGTVPCLPAYILYMCIRHADYTNDDLKVHSLLTSTINGIKKVLKKHNDDFEMTSFWLSNTCRLLHCLKQYSGDEGFMTQNTAKQNEHCLKNFDLTEYRQVLSDLSIQIYQQLIKIAEGVLQPMIVSAMLENESIQGLSGVKPTGYRKRSSSMADGDNSYCLEAIIRQMNAFHTVMCDQGLDPEIILQVFKQLFYMINAVTLNNLLLRKDVCSWSTGMQLRYNISQLEEWLRGRNLHQSGAVQTMEPLIQAAQLLQLKKKTQEDAEAICSLCTSLSTQQIVKILNLYTPLNEFEERVTVAFIRTIQAQLQERNDPQQLLLDAKHMFPVLFPFNPSSLTMDSIHIPACLNLEFLNEV
modifications: left off: GST, end not stated, kept
pulldown of endogenous Spir-1 in words (Spir-1): able to pull endogenous Spir-1 from mouse brain lysates

B2: GST-Spir-2-GTBM-SB-FYVE: GST-hs-Spir2-GTBM-SB-FYVE aa 361 - 714 (protein)
chain: GEGWAARGFGSLPCILNACSGDAKSTSCINLSVTDAGGSAQRPRPRVLLKAPTLAEMEEMNTSEEEESPCGEVTLKRDRSFSEHDLAQLRSEVASGLQSATHPPGGTEPPRPRAGSAHVWRPGSRDQGTCPASVSDPSHPLLSNRGSSGDRPEASMTPDAKHLWLEFSHPVESLALTVEEVMDVRRVLVKAEMEKFLQNKELFSSLKKGKICCCCRAKFPLFSWPPSCLFCKRAVCTSCSIKMKMPSKKFGHIPVYTLGFESPQRVSAAKTAPIQRRDIFQSLQGPQWQSVEEAFPHIYSHGCVLKDVCSECTSFVADVVRSSRKSVDVLNTTPRRSRQTQSLYIPNTRTLDFK
modifications: left off: GST, end not stated, kept
pulldown of Rab11a-Q70L in words (Rab11a-Q70L; in the presence of MyoVa-GTD): allows GST-Spir-2-GTBM-SB-FYVE to pull Rab11a-Q70L
pulldown of Rab11a-Q70L in words (Rab11a-Q70L; without MyoVa-GTD): does not interact with Rab11a-Q70L; also recorded: does not pull down Rab11a-Q70L
